Where two headings read alike, the source gives them in different places.

Data set [1] can be described thus: Cytotoxicity MTT assay. The class given is cell-based. The following applies: human, HepG2 cells (hepatocellular carcinoma cell line), HepG2, MTT, mean ± SEM, n = 3. As to the method: (§1) MTT assay was used to estimate cell viability potential for 24 h using hepatocellular carcinoma cell line (HepG2) as previously reported. Calculation of the relative cell viability percentage was performed following the equation: % Relative cell viability = (Absorbance of treated samples/Absorbance of untreated sample) × 100.

The subject of data set [2] is healthy adult Sprague–Dawley male rats. In words: In vivo toxicity study, 6 weeks oral daily. Also noted: species or system rat. The following applies: plasma, oral daily 6 weeks, dose equimolar to celecoxib 20 mg/kg; mean ± SEM, n = 6. The procedure: (§2) Ninety-eight healthy adult Sprague–Dawley male rats with an average weight of 150 ± 20 g were obtained from the animal facility at the Institute of Graduate Studies and Research, Alexandria University, Egypt. Animals were provided with a balanced commercial diet ad libitum and adapted for two weeks prior to the experiment. All animals were sacrificed under IP thiopental anesthesia (50 mg/kg) 48 h after the last treatment.
Blood samples were collected using cardiac puncture in Li-heparin tubes and centrifuged at 2000× g for 10 min to obtain the plasma. Then, the determination of hepatic biomarkers and renal profile was performed according to kits purchased from Roche Diagnostics, USA, using a Roche/Hitachi analyzer (cobas c 311, cobas c 501/502). […]

Data set [3] relates to induced liver fibrosis. The following applies: cited from earlier work.
For data set [4], the system named is induced liver fibrosis. The following applies: injected subcutaneously 3.6 µL/day, mice models; cited from earlier work.
The target of data set [5] is T1, COX-1 (Ovis aries, UniProt P05979).
T1 construct: purchased Cayman Chemicals, Ann Arbor, MI, USA 560131
T1 sequence (P05979 25-600): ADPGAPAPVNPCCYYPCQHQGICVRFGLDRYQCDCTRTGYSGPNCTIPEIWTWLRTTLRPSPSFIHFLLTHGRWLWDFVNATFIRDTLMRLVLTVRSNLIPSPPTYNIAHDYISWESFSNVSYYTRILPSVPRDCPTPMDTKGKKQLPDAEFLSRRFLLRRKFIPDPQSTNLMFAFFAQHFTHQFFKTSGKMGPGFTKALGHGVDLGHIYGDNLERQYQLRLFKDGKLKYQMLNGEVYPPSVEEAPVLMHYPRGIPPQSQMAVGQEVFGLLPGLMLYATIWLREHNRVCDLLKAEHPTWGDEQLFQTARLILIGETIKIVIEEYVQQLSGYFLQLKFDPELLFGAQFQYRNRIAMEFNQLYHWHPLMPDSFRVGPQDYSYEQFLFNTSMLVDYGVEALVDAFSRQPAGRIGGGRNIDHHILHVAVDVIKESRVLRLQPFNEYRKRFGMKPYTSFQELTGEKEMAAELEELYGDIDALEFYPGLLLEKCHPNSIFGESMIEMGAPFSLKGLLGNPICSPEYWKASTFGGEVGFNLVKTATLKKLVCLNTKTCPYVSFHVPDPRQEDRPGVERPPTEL
Put plainly: In vitro COX-1 inhibition assay (Cayman colorimetric COX (ovine) inhibitor screening kit). The class given is biochemical. The following applies: mean ± SEM, n = 3.

Data set [6] relates to hepatocellular carcinoma cell line (HepG2). In words: Cytotoxicity MTT assay. It is filed as cell-based. The following applies: human, 24 h. The procedure: as §1
(Tetrazolium assays rely on reduction of a dye to a coloured formazan, in cell work by metabolically active cells.)

The test system of data set [7] is CCl4-induced liver fibrosis in male Sprague–Dawley rats. Put plainly: Therapeutic model treated after induction of CCl4 liver fibrosis. It is filed as in vivo, rat. The following applies: for redox status (MDA, GSH, SOD in liver homogenate): oral daily weeks 7-12 after CCl4, compared to Clx. As to the method:
as §2
Blood samples were collected using cardiac puncture in Li-heparin tubes and centrifuged at 2000× g for 10 min to obtain the plasma. Then, the determination of hepatic biomarkers and renal profile was performed according to kits purchased from Roche Diagnostics, USA, using a Roche/Hitachi analyzer (cobas c 311, cobas c 501/502).
Rats were sacrificed by exsanguination following blood sample collection. The livers were excised, rinsed with cold saline, and dried on filter paper. A portion of each excised liver was put in 10% formalin solution, and then embedded in paraffin and sliced into 4–5 µm sections for histological evaluation. Another part of each liver was snap frozen and stored at −80 °C for later analyses of markers. The remaining tissue was stored in RNAlater solution (Qiagen, Germany, Mat. No. 1018087, lot no. 148052467) for qRT-PCR.
Sections from formalin-fixed paraffin-embedded (FFPE) liver tissues were stained with hematoxylin and eosin and Masson trichrome stain to evaluate liver necrosis and fibrosis. The scores of liver fibrosis degree were evaluated according to a 4-tiered scoring system following the criteria: score 0 = absent fibrosis where scanty fibrous tissue is seen only in portal tracts, score 1 = minimal fibrosis (expanded portal tracts with short fibrous septea may be extending from portal tracts), score 2 = mild fibrosis (long fibrous septea is extending from portal tracts with occasional bridging to other portal tracts or to central veins), score 3 = moderate fibrosis (frequent portal to portal or to central vein bridging with infrequent pseudolobule formation), and score 4 = severe fibrosis (nodular liver with evident pseudolobule formation). For collagen morphological quantification, multiple random pictures of the trichrome-stained section were taken using a microscope-adopted camera at ×400 power. The collagen-positive area stained in blue was evaluated using ImageJ software and then calculated as a percentage of the total field area. At least eight fields were assessed and the mean value was then calculated.
Four-micron sections were cut and mounted on positively charged slides. They were stained with smooth muscle actin (SMA) monoclonal primary antibody (Dako, Denmark; CodeIR611, lot no. 41247585) using Dako auto Stainer (autostainer Link 48). A positive control (leiomyoma) was used in each run. Immune-stained slides were assessed, and ten high power fields of each section were photographed using a Leica camera. Photos were analyzed using ImageJ software to record the immune-positive area (seen as brown staining) in each photo. Then, the positively stained area percentage was calculated as a mean of the 10 examined photos for each rat.
Protein content determination was performed according to Bradford using bovine serum albumin as a standard. A volume of 5 μL of each sample and standard was first added to each well then 250 μL of Ready-To-Use Coomassie Blue G-250 Based Reagent (Thermo Scientific, Waltham, MA, USA; Prod no. 23200, lot no. UE285518) was added. The microplate was put on the shaker for 30 s and then incubated for 10 min at RT. Absorbance was read at […] using a microplate reader.
The malondialdehyde (MDA) level was estimated using the thiobarbituric acid method as previously described. Liver glutathione was estimated using a colorimetric kit (Biodiagnostics, Egypt; catalog no. GR 25 11) according to the method of Beutler et al.. […]

Where [8] appears, read: liver tissue homogenate, after CCl4.

What is called IC50 is the concentration that inhibits the measured activity by half. `Cc1ccc(-c2cc(C(F)(F)F)nn2-c2ccc(S(N)(=O)=O)cc2)cc1` [Celecoxib, celecoxib, reference compound]: the IC50 at 24 h in data set [1] stood at 144.6 ± 1.08 µM. In addition, in data set [2], the ALP came to 138.66 ± 13.40 U/L, the ALT came to 42 ± 3.33 U/L, the AST turned out to be 147.5 ± 18.65 U/L and the Albumin is recorded as 3.73 ± 0.06 g/dL. For the same molecule, in data set [2], the Cholesterol is 52.5 ± 2.21 mg/dL, the Creatinine stood at 0.35 ± 0.01 mg/dL, the “Total Bilirubin” value is on record as 0.084 ± 0.006 mg/dL and the Triglycerides was found to be 53 ± 7.11 mg/dL. For the same molecule, in data set [3] (15 mg/kg/day orally, rat models), the “effect on induced liver fibrosis” value is “no effect”. In data set [3] (20 mg/kg/day orally), the “effect on induced liver fibrosis” value is given as “potentiality in the attenuation of induced liver fibrosis”. The “effect on induced liver fibrosis” value in data set [4] is “no effect”.

Regarding `COc1cc(/C=N/Nc2ncnc3c2cnn3-c2ccccc2)cc(OC)c1OC` [Compound D3], in data set [5], the IC50 was 11.5 ± 0.05 µM. This molecule also registered a concentration for half-maximal inhibition (IC50) at 24 h in data set [1] of 356.5 ± 2.9 µM. The “Safety Index (SI)” value in data set [6] is on record as 4042.7. In data set [2], this molecule had an ALP of 123.16 ± 4.12 U/L, an ALT of 37.83 ± 2.45 U/L, an AST of 147.33 ± 9.81 U/L and an Albumin of 3.86 ± 0.12 g/dL. In data set [2], the Cholesterol worked out at 62.33 ± 1.68 mg/dL, the Creatinine came out at 0.42 ± 0.02 mg/dL, the “Total Bilirubin” value is recorded as 0.076 ± 0.006 mg/dL and the Triglycerides was found to be 64 ± 8.01 mg/dL. Also, in data set [7] (setting [8]), the “MDA level compared to Clx” value is given as “significantly better that Clx”, the “SOD compared to Clx” value is “equal to it” and the “reduced GSH compared to Clx” value is reported as “worse”.

On to `COc1ccc(/C=N/Nc2ncnc3c2cnn3-c2ccccc2)cc1` [Compound D1], for which the IC50 in data set [5] came to 7.5 ± 0.09 µM. For the same molecule, inhibition in data set [1] was half-maximal at 370.7 ± 0.089 µM (IC50 at 24 h). Also, the “Safety Index (SI)” value in data set [6] is listed as 2745.9. For the same molecule, in data set [2], the ALP is 159.5 ± 7.48 U/L, the ALT is recorded as 49.66 ± 4.99 U/L, the AST was 139.5 ± 7.78 U/L and the Albumin was 3.9 ± 0.12 g/dL. Further, in data set [2], the Cholesterol is 71.66 ± 7 mg/dL, the Creatinine was 0.36 ± 0.03 mg/dL, the “Total Bilirubin” value is on record as 0.073 ± 0.004 mg/dL and the Triglycerides came to 67 ± 5.42 mg/dL. The “redox status (MDA, GSH, SOD in liver homogenate)” value in data set [7] is given as “no significance difference to Clx treatment”.

Molecule `COc1ccc(/C=N/Nc2ncnc3c2cnn3-c2ccccc2)cc1OC` [Compound D2] gave a half-inhibitory concentration (IC50) in data set [5] of 8.5 ± 0.04 µM. The midpoint of inhibition in data set [1], the IC50 at 24 h, lay at 344.95 ± 0.3 µM. Moreover, the “Safety Index (SI)” value in data set [6] turned out to be 3349.0. Moreover, in data set [2], the ALP was determined as 154.16 ± 10.92 U/L, the ALT came out at 39.66 ± 2.13 U/L, the Albumin was 3.78 ± 0.12 g/dL and the Cholesterol came to 67 ± 6.47 mg/dL. In addition, in data set [2], the Creatinine stood at 0.37 ± 0.01 mg/dL, the “Total Bilirubin” value is on record as 0.071 ± 0.01 mg/dL and the Triglycerides is on record as 61.83 ± 7.11 mg/dL. The “hepatic mRNA expression of MMP-9” value in data set [7] (after CCl4 and treatment, vs model and control) is “more significant reduction, reaching a low MMP-9 level near that of the control group”. The “reduction of TGF-β compared to celecoxib” value in data set [7] (hepatic mRNA, after CCl4 and treatment) was “more significant than celecoxib”. Moreover, the “proinflammatory and profibrogenic cytokines (TNF-α protein, TGF-β and IL-6 gene expression)” value in data set [7] (liver, after CCl4 and treatment) is reported as “decreased considerably reaching the control level”. The “severity of fibrosis (architecture, fibrotic score, collagen- and α-SMA-positive areas, α-SMA and COL1A1 mRNA)” value in data set [7] (oral daily weeks 7-12 after 6 weeks CCl4, vs model and Clx group) was “best effect”. The “redox status (MDA, GSH, SOD in liver homogenate)” value in data set [7] is given as “best enhancement”. The “restoration of increased plasma ALT and AST” value in data set [7] (plasma, after CCl4 and treatment) was “more significant”.

The record behind these values is article PMC10045301, “The Role of Pyrazolo[3,4-d]pyrimidine-Based Kinase Inhibitors in The Attenuation of CCl4-Induced Liver Fibrosis in Rats” (Antioxidants, 2023).
